Key:
[1] = molecular target: human TrkA (Homo sapiens (Human), UniProt P04629); experiment: Measurement of TrkA kinase-inhibiting activity using human TrkA-expressing cells; assay type: cell-based; settings: CHO-K1 cells expressing human TrkA and NFAT-bla; NGF 50 ng/ml; TR-FRET reporter
Method: TrkA kinase-inhibiting activity in cell systems was measured using CHO-K1 cells exressing human TrkA and NFAT-bla (CellSenser™ TrkA-NFAT-bla CHO-K1 cells, Invitrogen).
On the day before the assay, CellSenser™ TrkA-NFAT-bla CHO-K1 cells were suspended in an assay medium (Opti-MEM1 Reduced Serum Medium (Invitrogen) containing 0.5% dialysed fetal bovine serum (Invitrogen), 0.1 mM nonessential amino acids (Invitrogen), 1 mM sodium pyruvate (Invitrogen) and antibiotics (100 U/mL penicillin and 100 µg/mL streptomycin (Invitrogen))) and plated at a density of 2.4×10^4 cells/40 μL/well in a 96-well clear bottom plate (Corning, Catalogue No.: 3882). In some wells were added only the assay medium at 40 μL/well (Cell-free). On the day of the assay, 10 mM of the present compound (DMSO solution) was distributed in a 96-well plate (Costar, Catalogue No.: 3363) and serially diluted with DMSO with the geometrical ratio of 3. The serial dilutions were diluted with the assay medium to 100-fold to prepare a solution of the present compound with a 10-fold concentration (DMSO concentration: 1%). To the plate where cells were plated was added the present compound at 5 µL/well and the plate was incubated in a CO2 incubator with 5% CO2, 95% Air at 37° C. for 30 minutes. For a control and a blank, the assay medium containing 1% DMSO was added at 5 µL/well in place of the solution of the present compound. Subsequently the assay medium containing NGF (Mouse 2.5s, Natural, Invitrogen) was added to the plate at 5 µL/well (final concentration of NGF: 50 ng/ml) and the plate was incubated in a CO2 incubator with 5% CO2, 95% Air at 37° C. for 5 hours. For the blank group, the assay medium was added in place of NGF at 5 µL/well. A reporter assay detection reagent ([…]) was added to the plate which was then incubated in the dark at room temperature for 120 minutes. The reporter assay detection reagent was prepared from LiveBLAzer™-FRET B/G Loading Kit (Invitrogen). On the Analyst GT (Molecular Devices Japan, K.K.) the wells were irradiated with excitation light at 405 nm and the fluorescence intensities at 460 nm and 530 nm were measured. The time resolved fluorescence resonance energy transfer (TR-FRET) ratio of each well was calculated according to the following Equation 1: TR-FRET ratio=(A460x−A460F)/(A530x−A530F) [Eq. 1]
A460x: the fluorescence intensity at 460 nm of the present compound, control or blank;
A460F: the fluorescence intensity at 460 nm of the Cell-free;
A530x: the fluorescence intensity at 530 nm of the present compound, control or blank; and
A530x: the fluorescence intensity at 530 nm of the Cell-free.
The TR-FRET inhibition rate (%) of the present compound was calculated according to the following Equation 2: Inhibition rate (%)={1−(AX−AB)/(AC−AB)}×100 [Eq. 2]
wherein AX: the TR-FRET ratio when the present compound is added;
AB: the TR-FRET of the blank; and
AC: the TR-FRET of the control.
The IC50 value by the present compound was calculated from the inhibition curve based on the inhibition rate of the present compound at respective concentrations.

[2] = system: NGF-induced vascular hyper permeability; experiment: Inhibition of rat NGF-induced vascular hyper permeability; assay type: in vivo; settings: po, 1 mg/kg orally, 14 h after administration, read-out: Inhibition rate of vascular hyper permeability (%) (time after administration (h))
Method: TrkA-inhibiting activity of the present compound was evaluted in vivo. The present compound dissolved in a medium was orally administered (adminstered volume: 5 mL/kg) to male CD(SD)IGS rats (7- to 9-week old, Charles River laboratories Japan, Inc.) shaved on the back. A medium was orally administered (adminstered volume: 5 mL/kg) to the control and normal groups. After 6, 12 or 14 hours of administration, 3 μg/mL of a NGF (Mouse 2.5s, Natural, Invitrogen) solution prepared in 0.1% BSA (Sigma-Aldrich)-containing saline was intracutaneously administered (dose; 50 μL/site) at 3 sites on the back of animals under halothane anesthesia. For the normal group, 0.1% BSA-containing saline was intracutaneously administered (dose; […]) at 3 sites on the back. Immediately after intracutaneous administration, 1% Evans Blue (Tokyo Chemical Industriy Co., Ltd.) was administered intravenously from tail (adminstered volume: 3 mL/kg). After 10 minutes of administration, the animals were sacrificed by bleeding due to incision of the abdominal aorta. The sites of intracutaneous administration on the back (3 sites) were excised and the skin samples were respectively transferred to the wells in a 48-well plate (Asahi Glass Co., Ltd.). Formamide (0.8 mL/well) was added to the plate and the plate was sealed and incubated overnight at 60° C. The formamide extraction solution (200 μL) was transferred to a 96-well plate and the absorbance (wavelength: 620 nm) of Evans Blue extracted in formamide was measured on an absorbance microplate reader (SpectraMAX 190, Molecular Devices Japan, K.K.). Standard samples of Evans Blue dissolved in formamide (0, 0.78, 1.56, 3.13, 6.25, 12.5, 25 and 50 µg/mL) were measured at the same time for the absorance (wavelength: 620 nm) to generate a calibration curve. Based on the calibration curve and the absorbances of samples, the concentrations of Evans Blue in the sample was calculated. The concentrations of Evans Blue for three skin samples collected from one aminal were averaged to obtain the vale for the animal. The rate of inhibition for rat NGF-induced vascular hyper permeability of the present compound was calculated according to the following Equation: Inhibition rate (%)={1−(AX−AN)/(AC−AN)}×100 [Eq. 3]
wherein AX: the concentration of Evans Blue of the test compound (an average value of 3 samples from one animal);
AN: the concentration of Evans Blue of the normal group (an average value of 3 samples from one animal);
AC: the concentration of Evans Blue of the control group (an average value of 3 samples from one animal).

[3] = system: sodium monoiodoacetate-induced model rats; experiment: Analgesic effect on sodium monoiodoacetate-induced model rats; assay type: in vivo, rat

Chain of human TrkA (P04629 33-796): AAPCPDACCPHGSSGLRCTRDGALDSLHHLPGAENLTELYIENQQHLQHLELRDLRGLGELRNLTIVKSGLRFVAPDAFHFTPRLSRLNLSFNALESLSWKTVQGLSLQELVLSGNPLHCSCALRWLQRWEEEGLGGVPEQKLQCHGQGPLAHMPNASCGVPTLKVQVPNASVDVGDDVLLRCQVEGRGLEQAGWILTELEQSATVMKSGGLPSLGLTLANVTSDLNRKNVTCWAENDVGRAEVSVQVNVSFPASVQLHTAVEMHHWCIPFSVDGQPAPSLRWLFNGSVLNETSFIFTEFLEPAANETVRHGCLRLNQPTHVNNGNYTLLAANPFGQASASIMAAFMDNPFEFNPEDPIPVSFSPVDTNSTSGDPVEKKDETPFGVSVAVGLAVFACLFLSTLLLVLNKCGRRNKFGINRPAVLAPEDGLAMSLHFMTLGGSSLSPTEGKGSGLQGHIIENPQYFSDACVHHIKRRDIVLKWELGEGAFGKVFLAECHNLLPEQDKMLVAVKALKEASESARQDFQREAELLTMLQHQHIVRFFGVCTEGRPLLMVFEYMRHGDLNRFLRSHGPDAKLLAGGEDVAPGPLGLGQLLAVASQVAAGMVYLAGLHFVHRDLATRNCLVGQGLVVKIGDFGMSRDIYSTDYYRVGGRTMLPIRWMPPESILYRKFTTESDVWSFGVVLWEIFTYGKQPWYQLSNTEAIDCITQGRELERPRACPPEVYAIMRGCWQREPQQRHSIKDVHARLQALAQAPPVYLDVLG

`CN(C)c1ccn2ncc(-c3ccc(Oc4ncc(NC(=O)Nc5cc(C(F)(F)F)ccc5-c5ccnn5C)cn4)cc3)c2n1` [Example 21-51, 1-(2-{4-[5-(dimethylamino)pyrazolo[1,5-a]pyrimidin-3-yl]phenoxy}-5-pyrimidinyl)-3-[2-(1-methyl-1H-pyrazol-5-yl)-5-(trifluoromethyl)phenyl]urea] was tested. Which IC50 [1] did it give?
Its IC50 is 0.001 µM.

What about the inhibition in vivo at 1 mg/kg [2] of the same molecule?
The inhibition in vivo at 1 mg/kg was 95%.

With `Cc1ccn2ncc(-c3ccc(Oc4ncc(NC(=O)Nc5cc(C(F)(F)F)ccc5-c5cccnc5)cn4)cc3)c2n1` [Example 21-65, 1-{2-[4-(5-methylpyrazolo[1,5-a]pyrimidin-3-yl)phenoxy]-5-pyrimidinyl}-3-[2-(3-pyridinyl)-5-(trifluoromethyl)phenyl]urea] as the molecule, how does the IC50 [1] read?
Its IC50 is 0.0007 µM.

What about the inhibition in vivo at 1 mg/kg [2] of the same molecule?
The inhibition in vivo at 1 mg/kg was 92%.

Which IC50 [1] does the source give for `CCNc1ccn2ncc(-c3ccc(Oc4ncc(NC(=O)Nc5cc(C(F)(F)F)ccc5-c5cccc(C)c5)cn4)cc3)c2n1` [Example 21-67, 1-(2-{4-[5-(ethylamino)pyrazolo[1,5-a]pyrimidin-3-yl]phenoxy}-5-pyrimidinyl)-3-[3′-methyl-4-(trifluoromethyl)-2-biphenylyl]urea] here?
The IC50 was 0.004 µM.

What about the inhibition in vivo at 1 mg/kg [2] of the same molecule?
The inhibition in vivo at 1 mg/kg was 90%.

`CN(C)c1ccn2ncc(-c3ccc(Oc4ncc(NC(=O)Nc5cc(C(F)(F)F)ccc5-c5ccccc5)cn4)cc3)c2n1` [Example 21-70, 1-(2-{4-[5-(dimethylamino)pyrazolo[1,5-a]pyrimidin-3-yl]phenoxy}-5-pyrimidinyl)-3-[4-(trifluoromethyl)-2-biphenylyl]urea] was tested. Which IC50 [1] did it give?
Its IC50 is 0.002 µM.

And the inhibition in vivo at 1 mg/kg [2]?
Its inhibition in vivo at 1 mg/kg is 100%.

What does the source list for `Cc1cccc(-c2ccc(C(F)(F)F)cc2NC(=O)Nc2cnc(Oc3ccc(-c4cnn5ccc(N(C)C)nc45)cc3)nc2)c1` [Example 21-73, 1-(2-{4-[5-(dimethylamino)pyrazolo[1,5-a]pyrimidin-3-yl]phenoxy}-5-pyrimidinyl)-3-[3′-methyl-4-(trifluoromethyl)-2-biphenylyl]urea]?
IC50 [1]: 0.003 µM; inhibition in vivo at 1 mg/kg [2]: 92%

How did the IC50 [1] turn out when `Cc1ccccc1-c1ccc(C(F)(F)F)cc1NC(=O)Nc1cnc(Oc2ccc(-c3cnn4ccc(N(C)C)nc34)cc2)nc1` [Example 21-75, 1-(2-{4-[5-(dimethylamino)pyrazolo[1,5-a]pyrimidin-3-yl]phenoxy}-5-pyrimidinyl)-3-[2′-methyl-4-(trifluoromethyl)-2-biphenylyl]urea] was run?
Its IC50 is 0.004 µM.

And the inhibition in vivo at 1 mg/kg [2]?
The inhibition in vivo at 1 mg/kg was 100%.

How did the IC50 [1] turn out when `COc1ccc2ncc(-c3ccc(Oc4ncc(NC(=O)Nc5cc(C(F)(F)F)ccc5-c5cccnc5)cn4)cc3)n2n1` [Example 22-8, 1-(2-(4-(6-methoxyimidazo[1,2-b]pyridazin-3-yl)phenoxy)pyrimidin-5-yl)-3-(2-(pyridin-3-yl)-5-(trifluoromethyl)phenyl)urea] was run?
The IC50 was 0.001 µM.

And the inhibition in vivo at 1 mg/kg [2]?
Its inhibition in vivo at 1 mg/kg is 100%.

`COc1ccc2ncc(-c3ccc(Oc4ncc(NC(=O)Nc5cc(C(F)(F)F)ccc5-n5cccn5)cn4)cc3)n2n1` [Example 22-9, 1-(2-(1H-pyrazol-1-yl)-5-(trifluoromethyl)phenyl)-3-(2-(4-(6-methoxyimidazo[1,2-b]pyridazin-3-yl)phenoxy)pyrimidin-5-yl)urea] was tested. Which IC50 [1] did it give?
Its IC50 is 0.001 µM.

What about the inhibition in vivo at 1 mg/kg [2] of the same molecule?
Its inhibition in vivo at 1 mg/kg is 100%.

With `CCOc1ccc2ncc(-c3ccc(Oc4ncc(NC(=O)Nc5cc(C(F)(F)F)ccc5-c5cccnc5)cn4)cc3)n2n1` [Example 22-34, 1-{2-[4-(6-ethoxyimidazo[1,2-b]pyridazin-3-yl)phenoxy]-5-pyrimidinyl}-3-[2-(3-pyridinyl)-5-(trifluoromethyl)phenyl]urea] as the molecule, how does the IC50 [1] read?
The IC50 was 0.001 µM.

And the inhibition in vivo at 1 mg/kg [2]?
Its inhibition in vivo at 1 mg/kg is 91%.

`CN1CC[C@]23c4c5ccc(O)c4O[C@H]2[C@@H](O)C=C[C@H]3[C@H]1C5` [Morphine] was tested. Which inhibition in vivo at 3 mg/kg ([3]; Rattus norvegicus, sc, 1 h, read-out: Percent improvement (%)) did it give?
Its inhibition in vivo at 3 mg/kg is 54%.

`COc1cccc(C2(O)CCCCC2CN(C)C)c1` (centres unmarked) [Tramadol] was tested. Which “Percent improvement (%)” value ([3]; MIA-induced model rats, day 24, tramadol 10 mg/kg subcutaneously 1 hour before measurement) did it give?
Its value is 43%.

Reference: patent US9463192B2, “Trk-inhibiting compound” (ONO PHARMACEUTICAL CO., LTD., priority 2013, dated 2016)
